Results published in patent publication US9096832B2, “Differentiation of human embryonic stem cells” (LifeScan, Inc., priority 2007, dated 2015).
Where “and” joins values, the source holds several entries; their conditions need not be identical. Equal entries are not always repeated.

Columns and labels:
[1] = test system: human embryonic stem cell line H9; assay: Cells from […] differentiated on MEFs: role of Wnt-3a (real-time PCR, FACS); format: cell-based
Method: Cells from the human embryonic stem cell line H9 cultured on […]™ for at least five passages were seeded onto MEF feeders in ES media.
At day 3 and 5, the cultures were analyzed by real time PCR for SOX-17, SOX-7, Alpha-fetal protein (AFP), CXCR4, Brychyury (Bry), gooscecoid (GSC), HNF-3 beta, GATA4, hTERT and Oct4. AFP and SOX-7 are regarded as visceral endoderm markers while GATA4, HNF-3beta and SOX-17 represent definite endoderm markers and GSC, Bry, and CXCR4 represent markers of primitive streak. hTERT and Oct-4 are markers for self renewal and pluripotency respectively. FACS analysis was also performed at day 3 and 5.

[2] = test system: human embryonic stem cell line H9; assay: Cytokine array (RayBiotech) of cell lysates and conditioned media, Activin A +/- Wnt3a (Table VII); format: cell-based; set-up: Angiogenin / BDNF / BMP-4 / BMP-6 / CK beta 8-1 / Eotaxin-3 / Flt-3 Ligand / Fractalkine / GCP-2 / GDNF / GM-CSF / I-309 / IFN-gamma / IGFBP-1 / IGFBP-2 / IGFBP-4 / IL-10 / IL-13 / IL-15 / IL-1alpha / IL-1beta / IL-1ra / IL-3 / IL-5 / Leptin / MCP-1 / MIP-1-delta / NT-3 / RANTES / SCF / TGF-beta 1 / TNF-beta / Acrp30 / AgRP / AxI / bFGF: unit not given here; settings: H9 day 5, samples 1,2
Method: At passage 54, cells were differentiated in the presence of 100 ng/mlActivinA+/−10 ng/mlWnt3a for 2 days in 0.5% FBS DMEM/F12. […]
Cell lysates were prepared from cells of each treatment group, with a mammalian cell lysis kit (Sigma-Aldrich,MO). Conditioned media from each treatment group was collected and concentrated. Cytokine array analysis was completed using Cytokine Array panels provided by RayBiotech, GA (http://www.raybiotech.com/). […] For each panel, positive and negative controls are also included.

## Activin A: activin A (a member of the TGFβ superfamily), R&D Systems; 'w/o wnt' in Table VII = 100 ng/ml Activin A without Wnt3a
[1]; day 3, high concentration of Activin A
  CXCR4 positive cells (FACS): 32-42%
[1]; day 5, high concentration of activin A
  cells expressing CXCR4 (FACS): 28-32%
[1]; lower concentration of Activin A, regardless of Wnt3a
  AFP expression: very high
[2]; Cell conditioned media
  Acrp30: 1,797.52 and 1,319.88
  AgRP: 378.17 and 195.90
  Amphiregulin: 250.52 and 151.01
  Angiogenin: 13,726.35 and 11,749.55
  Angiopoietin-2: 655.82 and 632.60
  AxI: 401.31 and 324.05
  BDNF: 689.22 and 563.39
  BMP-4: 583.40 and 541.83
  BMP-6: 354.91 and 355.28
  CK beta 8-1: 17.79 and 25.31
  CNTF: 282.81 and 211.86
  EGF: 1,681.85 and 1,406.12
  Eotaxin: 207.89 and 199.67
  Eotaxin-2: 890.56 and 744.31
  Eotaxin-3: 975.77 and 665.56
  FGF-7: 449.49 and 352.47
  Flt-3 Ligand: 315.58 and 277.47
  Fractalkine: 120.80 and 145.30
  GCP-2: 203.21 and 166.86
  GDNF: 176.99 and 194.98
  GM-CSF: 777.25 and 722.75
  IFN-gamma: 283.74 and 559.64
  IGF-I: 88.96 and 148.11
  IGFBP-1: 33.71 and 24.37
  IGFBP-2: 27,656.85 and 28,473.95
  IGFBP-4: 10,091.09 and 6,029.45
  IL-1alpha: 10,155.70 and 5,842.90
  IL-1beta: 117.99 and 75.93
  IL-1ra: 142.34 and 93.74
  IL-2: 188.22 and 363.72
  IL-3: 4,598.86 and 5,260.77
  IL-4: 357.72 and 239.04
  IL-6: 7,377.28 and 9,527.88
  IL-7: 456.98 and 430.27
  IL-10: 722.93 and 564.32
  IL-16: 259.39 and 214.67
  LIGHT: 619.92 and 453.71
  Leptin: 2,999.42 and 2,016.38
  M-CSF: 529.09 and 269.04
  MCP-1: 572.17 and 500.58
  MCP-4: 123.61 and 61.87
  MIG: 272.50 and 486.52
  NAP-2: 97.39 and 110.61
  NT-3: 97.39 and 171.55
  PDGF-BB: 4,729.96 and 8,521.09
  RANTES: 393.31 and 347.78
  SCF: 691.09 and 487.46
  TGF-beta 1: 752.90 and 740.56
  TGF-beta 3: 111.44 and 115.30
  TNF-beta: 675.17 and 671.19
  bFGF: 7,948.03 and 4,993.83
[2]; Cell lysate
  Amphiregulin: 17.50 and 15.44
  AxI: 637.50 and 795.83
  BDNF: 167.50 and 167.82
  BMP-4: 247.00 and 273.70
  CK beta 8-1: 1.00 and 1.13
  Eotaxin-2: 262.00 and 336.77
  Eotaxin-3: 184.50 and 284.96
  FGF-6: 629.00 and 379.57
  GM-CSF: 433.00 and 636.37
  I-309: 152.50 and 246.10
  IFN-gamma: 349.00 and 441.52
  IGFBP-2: 3,785.50 and 5,554.45
  IGFBP-4: 5,553.00 and 6,043.27
  IL-1alpha: 1,236.00 and 1,216.99
  IL-1beta: 1.00 and 1.13
  IL-1ra: 33.00 and 25.91
  IL-5: 400.50 and 555.84
  IL-6: 828.50 and 516.98
  IL-7: 190.00 and 313.12
  IL-13: 428.50 and 555.84
  IL-15: 599.50 and 808.13
  Leptin: 900.50 and 617.79
  MCP-1: 242.50 and 282.71
  MIG: 291.00 and 226.39
  MIP-1-delta: 1.50 and 1.13
  NT-3: 1.00 and 1.13
  SCF: 74.50 and 148.67
  TGF-beta 1: 362.00 and 230.33
  TNF-alpha: 431.00 and 579.49
  TNF-beta: 241.00 and 342.40
  bFGF: 59,820.50 and 54,057.29
